Experimental data from PubChem BioAssay (NCI).
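Exposure lasted 48 hours, with cells grown in 96-well plates and compounds tested at five concentrations. At the TGI there is no net growth.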 Where a SMILES comes first, the peptide text is derived from it. [ ]: non-standard residue; d: D form. pGlu = O=C1CC[CH](C(=O)O)N1; Thz = O=C(O)[CH]1CSCN1

Assays:
Assay in all cases: inhibition of tumour cell growth, NCI panel, 48 h
HT29 colon = system: HT29 colon
SK-OV-3 ovarian = system: SK-OV-3 ovarian
CCRF-CEM leukemia = system: CCRF-CEM leukemia
K-562 leukemia = system: K-562 leukemia
UACC-62 melanoma = system: UACC-62 melanoma
NCI-H23 lung = system: NCI-H23 lung
OVCAR-5 ovarian = system: OVCAR-5 ovarian
RXF 393 renal = system: RXF 393 renal
SN12C renal = system: SN12C renal
UACC-257 melanoma = system: UACC-257 melanoma
BT-549 breast = system: BT-549 breast

SMILES: S=C(NCc1ccccc1)Nc1sc(=NCc2ccccc2)nc2sc3c(c12)CCN(N1CCc2c(sc4nc(=NCc5ccccc5)sc(NC(=S)NCc5ccccc5)c24)C1)C3
- TGI (HT29 colon): 43.3 µM
- TGI (SK-OV-3 ovarian): 99.6 µM
- TGI (CCRF-CEM leukemia): > 70.2 µM
- TGI (K-562 leukemia): > 100 µM
- TGI (UACC-62 melanoma): > 75.2 µM
- TGI (NCI-H23 lung): > 83.4 µM
- TGI (OVCAR-5 ovarian): > 85.2 µM
- TGI (RXF 393 renal): > 65.9 µM
- TGI (SN12C renal): > 52.8 µM
- TGI (UACC-257 melanoma): > 78.4 µM
- TGI (BT-549 breast): > 85.6 µM

SMILES: Cc1nc2c(c(N3CCN(C)CC3)n1)Cc1ccccc1-2
- TGI (HT29 colon): > 100 µM
- TGI (SK-OV-3 ovarian): > 100 µM
- TGI (CCRF-CEM leukemia): > 100 µM
- TGI (K-562 leukemia): > 100 µM
- TGI (UACC-62 melanoma): > 100 µM
- TGI (NCI-H23 lung): > 100 µM
- TGI (OVCAR-5 ovarian): > 100 µM
- TGI (RXF 393 renal): > 100 µM
- TGI (UACC-257 melanoma): > 100 µM
- TGI (BT-549 breast): > 100 µM

SMILES: CCOC(=O)CNC(=O)C(CCC(=O)N(C)O)NC(=O)CCC(N)C(=O)O (centres undefined)
- TGI (HT29 colon): > 100 µM
- TGI (SK-OV-3 ovarian): > 100 µM
- TGI (CCRF-CEM leukemia): > 100 µM
- TGI (K-562 leukemia): > 100 µM
- TGI (UACC-62 melanoma): > 100 µM
- TGI (NCI-H23 lung): > 100 µM
- TGI (OVCAR-5 ovarian): > 100 µM
- TGI (RXF 393 renal): > 100 µM
- TGI (SN12C renal): > 100 µM
- TGI (UACC-257 melanoma): > 100 µM
- TGI (BT-549 breast): > 100 µM

SMILES: O=C1CCC(C(=O)N2CSCC2C(=O)O)N1 (centres undefined) ([pGlu]-[Thz]-OH; configuration not given here)
- TGI (HT29 colon): > 100 µM
- TGI (SK-OV-3 ovarian): > 100 µM
- TGI (CCRF-CEM leukemia): > 100 µM
- TGI (K-562 leukemia): > 100 µM
- TGI (UACC-62 melanoma): > 100 µM
- TGI (NCI-H23 lung): > 100 µM
- TGI (OVCAR-5 ovarian): > 100 µM
- TGI (RXF 393 renal): > 100 µM
- TGI (SN12C renal): > 100 µM
- TGI (UACC-257 melanoma): > 100 µM
- TGI (BT-549 breast): > 100 µM

SMILES: Cc1c(NC(=S)Nc2ccc([N+](=O)[O-])cc2)c(=O)n(-c2ccccc2)n1C
- TGI (HT29 colon): > 100 µM
- TGI (SK-OV-3 ovarian): > 100 µM
- TGI (CCRF-CEM leukemia): > 100 µM
- TGI (K-562 leukemia): > 100 µM
- TGI (UACC-62 melanoma): > 100 µM
- TGI (NCI-H23 lung): > 100 µM
- TGI (OVCAR-5 ovarian): > 100 µM
- TGI (RXF 393 renal): > 100 µM
- TGI (UACC-257 melanoma): > 100 µM
- TGI (BT-549 breast): > 100 µM

SMILES: O=C(Cc1ccc2ccccc2c1)NCc1ccc(C(=O)NCCc2ccccc2)cc1
- TGI (HT29 colon): > 100 µM
- TGI (SK-OV-3 ovarian): > 100 µM
- TGI (CCRF-CEM leukemia): > 100 µM
- TGI (K-562 leukemia): > 100 µM
- TGI (UACC-62 melanoma): > 100 µM
- TGI (NCI-H23 lung): > 100 µM
- TGI (OVCAR-5 ovarian): > 100 µM
- TGI (RXF 393 renal): > 100 µM
- TGI (SN12C renal): > 100 µM
- TGI (UACC-257 melanoma): > 100 µM
- TGI (BT-549 breast): > 100 µM

SMILES: COC(=O)Nc1nc2ccc(NS(=O)(=O)c3cccs3)cc2[nH]1
- TGI (HT29 colon): > 100 µM
- TGI (SK-OV-3 ovarian): 90.6 µM
- TGI (CCRF-CEM leukemia): > 100 µM
- TGI (K-562 leukemia): > 100 µM
- TGI (UACC-62 melanoma): > 100 µM
- TGI (NCI-H23 lung): > 100 µM
- TGI (OVCAR-5 ovarian): > 100 µM
- TGI (RXF 393 renal): 85.8 µM
- TGI (SN12C renal): > 100 µM
- TGI (BT-549 breast): > 100 µM

SMILES: COc1ccc(C2CC(c3c(O)ccc4ccccc34)=NN2)cc1OC (centres undefined)
- TGI (HT29 colon): 4.98 µM
- TGI (SK-OV-3 ovarian): 28.8 µM
- TGI (CCRF-CEM leukemia): > 100 µM
- TGI (K-562 leukemia): > 100 µM
- TGI (UACC-62 melanoma): 13.6 µM
- TGI (NCI-H23 lung): 13.8 µM
- TGI (OVCAR-5 ovarian): 18.2 µM
- TGI (RXF 393 renal): 24.6 µM
- TGI (SN12C renal): 32.2 µM
- TGI (UACC-257 melanoma): 20.4 µM
- TGI (BT-549 breast): 16.1 µM

SMILES: Cc1ccc(S(=O)(=O)n2cc(C=O)c(-c3cn(S(=O)(=O)c4ccc(C)cc4)cc3-c3cn(S(=O)(=O)c4ccc(C)cc4)cc3C=O)c2)cc1
- TGI (HT29 colon): > 100 µM
- TGI (SK-OV-3 ovarian): > 100 µM
- TGI (CCRF-CEM leukemia): > 100 µM
- TGI (K-562 leukemia): > 100 µM
- TGI (UACC-62 melanoma): > 100 µM
- TGI (NCI-H23 lung): > 100 µM
- TGI (OVCAR-5 ovarian): > 100 µM
- TGI (RXF 393 renal): > 100 µM
- TGI (SN12C renal): > 100 µM
- TGI (UACC-257 melanoma): > 100 µM
- TGI (BT-549 breast): > 100 µM

SMILES: CC(C)C1CSC2N1C(=O)C2(OCc1ccccc1)C1CC1 (centres undefined)
- TGI (HT29 colon): > 100 µM
- TGI (SK-OV-3 ovarian): > 100 µM
- TGI (CCRF-CEM leukemia): > 100 µM
- TGI (K-562 leukemia): > 100 µM
- TGI (UACC-62 melanoma): > 100 µM
- TGI (NCI-H23 lung): > 100 µM
- TGI (OVCAR-5 ovarian): > 100 µM
- TGI (RXF 393 renal): > 100 µM
- TGI (SN12C renal): > 100 µM
- TGI (UACC-257 melanoma): > 100 µM
- TGI (BT-549 breast): > 100 µM

SMILES: CC(=O)Nc1nc(C)c(S(=O)(=O)NC(=O)NC2NC(=O)NC2=O)s1 (centres undefined)
- TGI (HT29 colon): > 100 µM
- TGI (SK-OV-3 ovarian): > 100 µM
- TGI (CCRF-CEM leukemia): > 100 µM
- TGI (K-562 leukemia): > 100 µM
- TGI (UACC-62 melanoma): > 100 µM
- TGI (NCI-H23 lung): > 100 µM
- TGI (OVCAR-5 ovarian): > 100 µM
- TGI (RXF 393 renal): > 100 µM
- TGI (SN12C renal): > 100 µM
- TGI (UACC-257 melanoma): > 100 µM
- TGI (BT-549 breast): > 100 µM

SMILES: Cc1ccc2nc3ccccc3c(C3C4C(=O)N(c5ccc(F)cc5)C(=O)C4ON3C(C(N)=O)c3ccccc3)c2c1 (centres undefined)
- TGI (HT29 colon): > 100 µM
- TGI (SK-OV-3 ovarian): > 100 µM
- TGI (CCRF-CEM leukemia): > 100 µM
- TGI (K-562 leukemia): > 100 µM
- TGI (UACC-62 melanoma): > 100 µM
- TGI (NCI-H23 lung): > 100 µM
- TGI (OVCAR-5 ovarian): > 100 µM
- TGI (RXF 393 renal): > 100 µM
- TGI (SN12C renal): > 100 µM
- TGI (UACC-257 melanoma): > 100 µM
- TGI (BT-549 breast): > 100 µM

SMILES: Nc1nc(Cl)cc(NCC2(CCO)CCC2)n1
- TGI (HT29 colon): > 100 µM
- TGI (SK-OV-3 ovarian): > 100 µM
- TGI (CCRF-CEM leukemia): > 100 µM
- TGI (K-562 leukemia): > 100 µM
- TGI (UACC-62 melanoma): > 10 µM
- TGI (NCI-H23 lung): > 100 µM
- TGI (OVCAR-5 ovarian): > 100 µM
- TGI (RXF 393 renal): > 100 µM
- TGI (SN12C renal): > 100 µM
- TGI (UACC-257 melanoma): > 100 µM
- TGI (BT-549 breast): > 100 µM

SMILES: CCOC(=O)C12CCC(=O)N1N(C)c1ncccc1N2 (centres undefined)
- TGI (HT29 colon): > 100 µM
- TGI (SK-OV-3 ovarian): > 100 µM
- TGI (CCRF-CEM leukemia): > 100 µM
- TGI (K-562 leukemia): > 100 µM
- TGI (UACC-62 melanoma): > 100 µM
- TGI (NCI-H23 lung): > 100 µM
- TGI (OVCAR-5 ovarian): > 100 µM
- TGI (RXF 393 renal): > 100 µM
- TGI (UACC-257 melanoma): > 100 µM
- TGI (BT-549 breast): > 100 µM

SMILES: CN(O)C(=O)CCC(NC(=O)CCC(N)C(=O)O)C(=O)NCC(=O)O (centres undefined)
- TGI (HT29 colon): > 100 µM
- TGI (SK-OV-3 ovarian): > 100 µM
- TGI (CCRF-CEM leukemia): > 100 µM
- TGI (K-562 leukemia): > 100 µM
- TGI (UACC-62 melanoma): > 100 µM
- TGI (NCI-H23 lung): > 100 µM
- TGI (OVCAR-5 ovarian): > 100 µM
- TGI (RXF 393 renal): > 100 µM
- TGI (SN12C renal): > 100 µM
- TGI (UACC-257 melanoma): > 100 µM
- TGI (BT-549 breast): > 100 µM

SMILES: Cn1c(-c2ccco2)ccc1-c1ccc(C=O)o1
- TGI (HT29 colon): > 100 µM
- TGI (SK-OV-3 ovarian): > 100 µM
- TGI (CCRF-CEM leukemia): > 100 µM
- TGI (K-562 leukemia): > 100 µM
- TGI (UACC-62 melanoma): > 100 µM
- TGI (NCI-H23 lung): > 100 µM
- TGI (OVCAR-5 ovarian): > 100 µM
- TGI (RXF 393 renal): > 100 µM
- TGI (SN12C renal): > 100 µM
- TGI (UACC-257 melanoma): > 100 µM
- TGI (BT-549 breast): > 100 µM

SMILES: COc1cc(C2C=C(c3ccccc3)Oc3cc4c(cc32)OCO4)cc(OC)c1OC (centres undefined)
- TGI (HT29 colon): > 18.3 µM
- TGI (SK-OV-3 ovarian): > 100 µM
- TGI (CCRF-CEM leukemia): > 100 µM
- TGI (K-562 leukemia): > 100 µM
- TGI (UACC-62 melanoma): > 100 µM
- TGI (NCI-H23 lung): > 27 µM
- TGI (OVCAR-5 ovarian): > 100 µM
- TGI (RXF 393 renal): > 100 µM
- TGI (SN12C renal): > 96.3 µM
- TGI (UACC-257 melanoma): > 100 µM
- TGI (BT-549 breast): > 100 µM

SMILES: NC1=Nc2ccccc2Sc2nncn21
- TGI (HT29 colon): > 100 µM
- TGI (SK-OV-3 ovarian): > 100 µM
- TGI (CCRF-CEM leukemia): > 100 µM
- TGI (K-562 leukemia): > 100 µM
- TGI (UACC-62 melanoma): > 100 µM
- TGI (NCI-H23 lung): > 100 µM
- TGI (OVCAR-5 ovarian): > 100 µM
- TGI (RXF 393 renal): > 100 µM
- TGI (SN12C renal): > 100 µM
- TGI (UACC-257 melanoma): > 100 µM
- TGI (BT-549 breast): > 100 µM
